{"source": "patent US20130071897A1", "about": "“METHOD FOR CONTROLLING UNDESIRABLE BYPRODUCTS FORMATION CAUSED BY CONTAMINATING ORGANISMS IN THE PRODUCTION OF ETHANOL FROM SYNGAS” (COSKATA, INC., priority 2011, published 2013)", "key": {"[1]": {"test_system": "acyl-CoA dehydrogenases", "experiment": "In vitro acyl-CoA dehydrogenase ferrocenium assay with C. tyrobutyricum cell-free extract", "assay_type": "biochemical", "conditions": "0.5 to 10 mM compound; rate of ferrocenium reduction at 300 nm", "description": "Lehman, et al., in An Acyl-Coenzyme A Dehydrogenase Assay Utilizing the Ferricenium Ion, Analytical Biochemistry 186, pages 280-284 (1990), disclose an in vitro assay screening technique for acyl-CoA dehydrogenases for determining enzyme deficiencies in children. An adaptation of this technique was explored as a potential screening method for ascertaining potential butyrogen inhibitors. An aqueous assay liquor is prepared such that each 1 milliliter sample contains 50 mM of TrisHCl buffer (pH 7.6); 0.05 mM of butyryl-CoA; 5 micromoles of FAD (flavin adenine dinucleotide) and 0.4 mM of ferrocenium. Whole cells of C. tyrobutyricum are lysed and are added to the assay liquor. […] The abbreviation mM stands for millimolar. To assure metabolic consistency among the samples a master batch of C. tyrobutyricum is prepared and harvested at the early log growth stage (approximate O.D. of between about 0.5 and 0.7). The master batch fermentation broth is centrifuged and rinsed with 50 mM TrisHCl buffer (pH 7.6), centrifuged and reconstituted with 50 mM TrisHCl buffer (pH 7.6) to be 10 times more concentrated than the original master batch. Aliquots of about 0.5 milliliter are placed into cryogenic vials (about 1.8 milliliter capacity) and frozen at −80° C. until needed. When needed, a vial is placed in an anoxic Coy chamber and allowed to thaw to room temperature. Once thawed, the cells are added to a 15 mL centrifuge tube and diluted with 0.5 mL of a 2 mg/mL solution of lysozyme (purchased from Aldrich) in 50 mM Tris-HCl (final concentration of lysozyme is about 1 mg/mL). The centrifuge tube is inverted 5 times, removed from the Coy chamber and allowed to incubate at 37° C. for 30 minutes. […] The centrifuge tube is vortexed in the Coy chamber for about 30 seconds, removed from the chamber and centrifuged for 15 minutes at 4000 rpm and 4° C. The tube is returned to the chamber and the cell-free extract (supernatant) is used to prepare the above described samples. The samples are analyzed at various times by absorbance spectroscopy at 300 nm using a Thermo Scientific Evolution 300 UV/Vis spectrophotometer with a 7-cuvette carousel and Starna quartz cuvettes with a septum cap to determine the amount of reduction of ferrocenium. The sample is at laboratory temperature and is maintained under anaerobic conditions. Typically, the absorbance is measured over a period of about 10 to 20 minutes which is sufficient time for the absorbance to stop changing. A linear slope of the rate of change in absorbance during the period that the absorbance is changing is determined using Microsoft Excel® 2010 linear regression to generate a straight line from the data points. The more gradual the slope, the better inhibition because the enzyme is slower at reducing the ferrocenium in the assay sample. A dose-response curve is then determined for each compound by plotting the linear slope against the respective compound concentration. A linear slope is then determined for each compound using Microsoft Excel® 2010 linear regression to generate a straight line from the data points. The steeper the dose-response slope, the better the inhibition because the increased concentration of the compound causes more of a difference in enzyme activity. The dose-response slope generally has a broad standard of deviation due to experimental imprecision and slope determinations."}, "[2]": {"test_system": "Clostridium tyrobutyricum", "experiment": "Balch tube batch growth of strict butyrogen Clostridium tyrobutyricum on fructose, optical density", "assay_type": "cell-based", "conditions": "added 21 h after inoculation", "description": "Similar experiments were conducted to make a preliminary determination as to which of the crotonate and crotonate-like compounds would act as butyrogen retardants. For this purpose the selected compounds were tested again in a series of batch experiments to determine the growth response of butyrogens to the presence of the compound at varying concentrations. The batch experiments were all conducted by anoxically filling a 20 ml Balch tube with 5 ml of a fermentation medium having the composition given in Tables 2 and 3. The media included 0.5 v/v final concentration of a fructose substrate. For each of the crotonate concentrations tested, duplicate test tubes were prepared.\nEach tube was inoculated with 0.5 ml seed culture inoculum of the strict butyrogen Clostridium tyrobutyricum. The tubes were maintained at a temperature of 37° C. Twenty one hours after the inoculation of the tube with the bacteria, the different compounds from Table 1 were added to different tubes in the amounts indicated in Table 6. This was at a time of early to mid-log phase growth for the bacteria. Each fermentation of the bacteria in the media at the different concentration of crotonate derivatives were allowed to progress and were monitored to determine the bacteria growth at selected intervals of time varying from approximately 20 hours to 54 hours. Growth at the intervals was measured by reading the optical density (OD) of the fermentation liquid. Optical density was measured as described in Example 1. The ability of a tube fermentation at a particular concentration of crotonate derivative to reach a predetermined optical density was recorded in Table 6. Table 6 indicates the presence of bacterial growth to an OD of approximately 1.8 or above with a “+”, and to an optical density in a range of 0.7 to 1.5 as a “+/−”, and indicates the failure of bacterial growth to reach an optical density of approximately 0.7 as a “−”."}, "[3]": {"test_system": "C. autoethanogenum", "experiment": "Balch tube batch growth of homoacetogen C. autoethanogenum on fructose, optical density", "assay_type": "cell-based", "conditions": "added 21 h after inoculation", "description": "These compounds were first tested to determine their effect on a known homoacetogen. Each compound was tested in a series of batch experiments to determine the growth response of a homoacetogen to the presence of the compound at varying concentrations. The batch experiments were all conducted by anoxically filling a Balch tube with 5 ml of a fermentation medium having the composition given in Tables 2 and 3. To expedite results, these batch experiments used fructose as the growth nutrient source for bacteria. Thus, the media included a 5 g/L of fructose.\nEach tube was inoculated with 0.5 ml of the same strain of C. autoethanogenum bacteria seed culture inoculum. The tubes were maintained at a temperature of 37° C. Twenty one hours after the inoculation of the tube with the bacteria, the different crotonate derivatives from Table 1 were added to different tubes in the amounts indicated in Table 4 This was at a time of early to mid-log phase growth for the bacteria. Each fermentation of the bacteria in the media at the different concentration of crotonate derivatives were allowed to progress and were monitored to determine the bacteria growth at selected intervals of time varying from approximately 20 hours to 190 hours. Growth at the intervals was measured by reading the optical density (OD) of the fermentation liquid. Optical density was measured using a Spectronic Spec 20 (Thermo Spectronic) at a wavelength of 600 nm. The OD of the Balch tube culture was measured directly in the tube using absorbance mode on the Spec 20 machine. The machine was set to zero absorbance by first measuring and adjusting the setting to zero absorbance using media only as a blank. This process was repeated at each indicated time point throughout the experiment. The ability of a tube fermentation at a particular concentration of crotonate derivative to reach a predetermined optical density was recorded in Table 4. Table 4 indicates the presence of bacterial growth to an OD of approximately 2 or above with a “+”, and to an optical density in a range of 0.5 to 1.5 as a “+/−”, and indicates the failure of bacterial growth to reach an optical density of approximately 0.5 as a “−”."}, "[4]": {"test_system": "Clostridium tyrobutyricum", "experiment": "Butyric acid by gas chromatography in Clostridium tyrobutyricum batch fermentations", "assay_type": "cell-based", "conditions": "Table 19, duplicates A and B", "description": "The concentration of butyric acid is determined by gas chromatography for several of the above samples at the stated points in time. The butyrate production is calculated based upon peak area calculations generated by the gas chromatograph. At 11 hours, the concentration of butyric acid for each of the controls is about 0.95 gram per liter, and the concentration of butyric acid for the samples containing 500 ppm of the inhibitor are about 0.6 gram per liter.\nThe concentration of butyric acid is determined by gas chromatography using the procedure set forth in Example 13. The control is reported only in Table 18."}, "[5]": {"test_system": "Clostridium tyrobutyricum", "experiment": "Serum bottle batch fermentation of Clostridium tyrobutyricum on fructose, optical density", "assay_type": "cell-based", "conditions": "Table 17, duplicates A and B", "description": "Ethyl 3-(trifluoromethyl)benzoate is evaluated in a series of batch fermentations to determine the growth response of butyrogens to the presence of this compound at varying concentrations. The batch fermentations are conducted by anoxically filling 100 mL serum bottles with 15 mL of media having the composition given in Tables 12 and 13. About 0.15 mL of a 50% w/w solution of fructose in water (final fructose concentration about 5 g/L) is provided in the bottles. Duplicate runs are conducted for each concentration.\n(§1) Each bottle is inoculated with 1.5 mL of seed culture inoculum of the strict butyrogen Clostridium tyrobutyricum, which has an OD of about 0.40 (which upon a 10 times dilution provides a starting OD for the fermentation of about 0.04). The bottles are maintained at a temperature of 37° C. Two hours after inoculation of the bottles with the bacteria, the compound is added to different bottles as a solution in 50 μL of N-methylpyrrolidone in the amounts indicated in Table 15. The fermentation process is allowed to progress at 37° C. At selected intervals of time, bacterial growth is measured by reading the optical density (OD) of the fermentation liquid. Optical density is measured by anoxically removing an aliquot of fermentation liquid and adding it to a disposable cuvette. OD's ranging between 0.01 and 0.4 are measured directly, while OD's greater than 0.4 are measure after performing a 1/10 dilution with water.\nIn this example ethyl 4,4,4-trifluoro-3-(trifluoromethyl)crotonate and ethyl 3-trifluoromethyl-4-methoxybenzoate are evaluated by batch fermentation. The batch fermentations are conducted by anoxically filling 100 mL serum bottles with 15 mL of media having the composition given in Tables 12 and 13. About 0.15 mL of a 50% w/w solution of fructose in water (final fructose concentration about 5 g/L) is provided in the bottles. Duplicate runs are conducted for each concentration.\nas §1, with “of about 0.42 (which upon” for “of about 0.40 (which upon”, “of about 0.042). The bottles” for “of about 0.04). The bottles”, “in Table 16 and 17. The fermentation” for “in Table 15. The fermentation”, “0.4 are measured after performing” for “0.4 are measure after performing”"}}, "note": "Where “and” joins values, the source holds several entries; their conditions need not be identical. Equal entries are not always repeated."}
{"compound": "CCOC(=O)/C(C)=C/C(F)(F)F", "note": "[F, ethyl-2-methyl-4,4,4-trifluorocrotonate, reference compound]", "values": [{"measurement": "Dose-Response Slope", "setting": "[1]", "value": 2}, {"measurement": "Optical density valuation of C. tyrobutyricum", "setting": "[2]; 100 ppm(m)", "value": "+ (bacterial growth to an OD of approximately 1.8 or above)"}, {"measurement": "Optical density valuation of C. tyrobutyricum", "setting": "[2]; 500 ppm(m)", "value": "+ (bacterial growth to an OD of approximately 1.8 or above)"}, {"measurement": "Optical density valuation of C. tyrobutyricum", "setting": "[2]; 1000 ppm(m)", "value": "+ (bacterial growth to an OD of approximately 1.8 or above)"}, {"measurement": "Optical density valuation of C. autoethanogenum", "setting": "[3]; 10 ppm(m)", "value": "+ (bacterial growth to an OD of approximately 2 or above)"}, {"measurement": "Optical density valuation of C. autoethanogenum", "setting": "[3]; 100 ppm(m)", "value": "+ (bacterial growth to an OD of approximately 2 or above)"}, {"measurement": "Optical density valuation of C. autoethanogenum", "setting": "[3]; 500 ppm(m)", "value": "+ (bacterial growth to an OD of approximately 2 or above)"}, {"measurement": "Optical density valuation of C. autoethanogenum", "setting": "[3]; 1000 ppm(m)", "value": "+ (bacterial growth to an OD of approximately 2 or above)"}, {"measurement": "Optical density valuation of C. autoethanogenum", "setting": "[3]; 5000 ppm(m)", "value": "+/− (to an optical density in a range of 0.5 to 1.5)"}, {"measurement": "Optical density valuation of C. autoethanogenum", "setting": "[3]; 10000 ppm(m)", "value": "− (failure of bacterial growth to reach an optical density of approximately 0.5)"}]}
{"compound": "CCOC(=O)c1ccc(OC)c(C(F)(F)F)c1", "note": "[ethyl 3-trifluoromethyl-4-methoxybenzoate]", "values": [{"measurement": "Butyrate Production", "setting": "[4]; 5 mM, 6 Hours", "value": "0.19 grams per liter and 0.10 grams per liter"}, {"measurement": "Butyrate Production", "setting": "[4]; 10 mM, 2 Hours", "value": 0.03, "unit": "grams per liter"}, {"measurement": "Butyrate Production", "setting": "[4]; 10 mM, 4.5 Hours", "value": "0.69 grams per liter and 0.67 grams per liter"}, {"measurement": "Butyrate Production", "setting": "[4]; 10 mM, 6 Hours", "value": "0.11 grams per liter and 0.10 grams per liter"}, {"measurement": "Butyrate Production", "setting": "[4]; 10 mM, 24 Hours", "value": "0.19 grams per liter and 0.17 grams per liter"}, {"measurement": "O.D. Response", "setting": "[5]; 5 mM, 0 Hours, added 2 h after inoculation", "value": 0.42}, {"measurement": "O.D. Response", "setting": "[5]; 5 mM, 2 Hours, added 2 h after inoculation", "value": "0.11 and 0.12"}, {"measurement": "O.D. Response", "setting": "[5]; 5 mM, 4.5 Hours", "value": "0.20 and 0.18"}, {"measurement": "O.D. Response", "setting": "[5]; 5 mM, 6 Hours", "value": "0.16 and 0.10"}, {"measurement": "O.D. Response", "setting": "[5]; 5 mM, 24 Hours", "value": "1.23 and 0.91"}, {"measurement": "O.D. Response", "setting": "[5]; 10 mM, 0 Hours, added 2 h after inoculation", "value": 0.42}, {"measurement": "O.D. Response", "setting": "[5]; 10 mM, 2 Hours, added 2 h after inoculation", "value": 0.11}, {"measurement": "O.D. Response", "setting": "[5]; 10 mM, 4.5 Hours", "value": "0.24 and 0.23"}, {"measurement": "O.D. Response", "setting": "[5]; 10 mM, 6 Hours", "value": "0.12 and 0.13"}, {"measurement": "O.D. Response", "setting": "[5]; 10 mM, 24 Hours", "value": "1.22 and 1.19"}]}
